Like-named read-outs stand apart in the source and are kept apart here.
Experiments:
[1] = test system: UV-induced corneal lesions in rabbits; test: Inhibitory effect on UV-induced corneal lesions in rabbits (fluorescein penetration into cornea, anterior fluorophotometer); format: in vivo, White rabbits; settings: rabbit cornea
Method: The inhibitory effect of the present compound on UV-induced corneal lesions in rabbits was evaluated. Test substance: L-Ascorbyl DL-α-tocopheryl phosphate potassium (abbreviation: EPC-K). Method: White rabbits were used; 4 animals assigned to the present compound treatment group and 3 assigned to a control group (the nictitating membrane was excised beforehand).
For UV irradiation, Hoya-Schott's HLS200U (dominant wavelength 365 nm) equipped with a 200 W mercury-xenon lamp as the light source was used. Ushio Electric's Unimeter UIT-101 was used for the determination of luminous energy.
One eye of each rabbit was kept open with an eye speculum and set at a distance of 43 cm from the light source so that the irradiation energy would be 0.024 J/cm². The eye was irradiated with ultraviolet light under the conditions of 0.2 mW/cm² and 2 minutes. The fellow eye was protected with an eye patch.
After UV irradiation, the vehicle (2.6% concentrated glycerin solution) was instilled in the eyes of rabbits in the control group 3 times daily and 0.1% EPC-K (dissolved in 2.6% concentrated glycerin solution) was instilled as often into the eyes of rabbits in the present compound treatment group.
The degree of rabbit corneal lesion was evaluated by the following method^1). Using fluorescein as a tracer, the fluorescence intensity of the tracer dye penetrating into the cornea within a predetermined region was measured for a quantitative assessment of the barrier function of the corneal epithelium (The corneal epithelium has a barrier function^2) to restrict penetration of any substance into the deep layer of the cornea and when an erosion or other injury occurs in the corneal epithelium, this barrier function is compromised so that the penetration of the substance into the depth of the cornea is increased). Thus, at 0, 0.5, 6, 12, 24, 48 and 72 hours after UV irradiation, fluorescein sodium was instilled into the eye and the fluorescence intensity of the fluorescein sodium that had penetrated into the cornea was measured with a Kowa anterior fluorophotometer. 1) Norihiko Yokoi et al.: Quantitative evaluation of corneal epithelial barrier function with a new fluorophotometer, Journal of the Eye, 10(8); 1357-1363, 1993 2) Klyce SD and Crosson CE: Transport processes across the rabbit corneal epithelium, a review. Curr Eye Res 4 4;427-432, 1985.

[2] = Acute toxicity (LD50); settings: rat, in vivo, rats, read-out: LD₅₀
Method: The compound for use as an active ingredient in the therapeutic composition for corneal impairment according to this invention is a very safe substance with an extremely low toxic potential and, as such, can be used with advantage for the purposes of this invention. [e.g. the LD₅₀ values of L-ascorbyl DL-α-tocopheryl phosphate potassium (hereinafter referred to briefly as EPC-K) ≧ 5 g/kg p.o. (rats) and ≧ 100 mg/kg i.v. (rats)].

Cc1c(C)c2c(c(C)c1OP(=O)(O)OC1=C(O)[C@@H]([C@@H](O)CO)OC1=O)CCC(C)(CCCC(C)CCCC(C)CCCC(C)C)O2 (mixture of isomers) [EPC-K, L-ascorbyl DL-α-tocopheryl phosphate potassium]
intensity of fluorescence ([1]; 0 hours after UV irradiation, 0.1% EPC-K in 2.6% concentrated glycerin solution instilled 3 times daily, control group 457): 259 | intensity of fluorescence ([1]; 0.5 hours after UV irradiation, 0.1% EPC-K instilled 3 times daily, control group 791): 447 | intensity of fluorescence ([1]; 6 hours after UV irradiation, 0.1% EPC-K instilled 3 times daily, control group 899): 695 | intensity of fluorescence ([1]; 12 hours after UV irradiation, 0.1% EPC-K instilled 3 times daily, control group 3813): 1038 | intensity of fluorescence ([1]; 24 hours after UV irradiation, 0.1% EPC-K instilled 3 times daily, control group 3860): 875 | intensity of fluorescence ([1]; 48 hours after UV irradiation, 0.1% EPC-K instilled 3 times daily, control group 870): 343 | intensity of fluorescence ([1]; 72 hours after UV irradiation, 0.1% EPC-K instilled 3 times daily, control group 655): 311 | LD50 ([2]; iv): ≥ 100 mg/kg | LD50 ([2]; po): ≥ 5000 mg/kg

Reference: patent EP0684043A1, “Therapeutic composition for corneal impairment containing a phosphonic acid diester compound” (Senju Pharmaceutical Co., Ltd., priority 1994, dated 1995)
